Test results published in PubChem BioAssay (NCI).
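All cell lines were grown in 96-well plates and treated with compound for 48 hours. At the GI50, growth is halved. At the TGI there is no net growth.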

Columns and labels:
Assay in all cases: NCI tumour cell line growth inhibition, 48 h
[1] = test system: MDA-MB-435
[2] = test system: RPMI-8226 leukemia
[3] = test system: NCI-H522 lung
[4] = test system: HOP-62 NSCLC
[5] = test system: UACC-62 melanoma
[6] = test system: SN12C renal
[7] = test system: HS 578T breast
[8] = test system: HT29 colon
[9] = test system: SNB-19 CNS
[10] = test system: HCT-116 colon
[11] = test system: UO-31 renal
[12] = test system: KM12 colon
[13] = test system: MDA-MB-231 breast
[14] = test system: NCI-H226 lung
[15] = test system: A498 renal
[16] = test system: SF-295 CNS
[17] = test system: HCC-2998 colon
[18] = test system: 786-0 renal
[19] = test system: HCT-15 colon
[20] = test system: MOLT-4 leukemia
[21] = test system: CAKI-1 renal
[22] = test system: CCRF-CEM leukemia
[23] = test system: SW-620 colon
[24] = test system: T-47D breast
[25] = test system: SNB-75 CNS
[26] = test system: OVCAR-3 ovarian
[27] = test system: SR leukemia
[28] = test system: ACHN renal
[29] = test system: HL-60(TB) leukemia
[30] = test system: NCI-H23 lung
[31] = test system: MCF7 breast
[32] = test system: SK-MEL-5 melanoma
[33] = test system: MALME-3M melanoma
[34] = test system: COLO 205 colon
[35] = test system: SK-MEL-28 melanoma
[36] = test system: SK-OV-3 ovarian
[37] = test system: EKVX NSCLC
[38] = test system: NCI/ADR-RES ovarian
[39] = test system: OVCAR-5 ovarian
[40] = test system: IGROV1 ovarian
[41] = test system: A549 NSCLC
[42] = test system: OVCAR-4 ovarian
[43] = test system: SF-539 CNS
[44] = test system: OVCAR-8 ovarian
[45] = test system: BT-549 breast
[46] = test system: K-562 leukemia
[47] = test system: DU-145 prostate
[48] = test system: HOP-92 NSCLC
[49] = test system: SF-268 CNS
[50] = test system: TK-10 renal
[51] = test system: RXF 393 renal
[52] = test system: M14 melanoma
[53] = test system: NCI-H460 lung
[54] = test system: U251 CNS
[55] = test system: UACC-257 melanoma
[56] = test system: PC-3 prostate
[57] = test system: LOX IMVI melanoma

## CCCCCCCCCCn1cc[n+](C)c1
[1]
  GI50: 1.4 µM
  TGI: 8.64 µM
[2]
  GI50: 0.109 µM
  TGI: 0.448 µM
[3]
  GI50: 1.86 µM
  TGI: 10.4 µM
[4]
  GI50: 3.16 µM
  TGI: 17.5 µM
[5]
  GI50: 2.53 µM
  TGI: 10.6 µM
[6]
  GI50: 2.54 µM
  TGI: 9.71 µM
[7]
  GI50: 2.36 µM
  TGI: 14 µM
[8]
  GI50: 2.23 µM
  TGI: 19.2 µM
[9]
  GI50: 3.96 µM
  TGI: 32.9 µM
[10]
  GI50: 1.37 µM
  TGI: > 36.9 µM
[11]
  GI50: 10.3 µM
  TGI: 50.7 µM
[12]
  GI50: 1.57 µM
  TGI: 5.75 µM
[13]
  GI50: 2.73 µM
  TGI: 16.9 µM
[14]
  GI50: 2.43 µM
  TGI: 47 µM
[15]
  GI50: 0.383 µM
  TGI: 9.73 µM
[16]
  GI50: 1.39 µM
  TGI: 8.43 µM
[17]
  GI50: 1.56 µM
  TGI: 11.2 µM
[18]
  GI50: 2.39 µM
  TGI: 18.1 µM
[19]
  GI50: 17.9 µM
  TGI: > 100 µM
[20]
  GI50: 2.9 µM
  TGI: 29 µM
[21]
  GI50: 1.79 µM
  TGI: 23.5 µM
[22]
  GI50: 0.43 µM
  TGI: 4.51 µM
[23]
  GI50: 3.3 µM
  TGI: 33 µM
[24]
  GI50: 1.61 µM
  TGI: > 21.7 µM
[25]
  GI50: 2.69 µM
  TGI: 11.4 µM
[26]
  GI50: 1.94 µM
  TGI: 8.59 µM
[27]
  GI50: 0.163 µM
  TGI: 4.16 µM
[28]
  GI50: 3.38 µM
  TGI: > 49.2 µM
[29]
  GI50: 0.226 µM
  TGI: 1.7 µM
[30]
  GI50: 0.648 µM
  TGI: 28 µM
[31]
  GI50: 1.69 µM
  TGI: 13.6 µM
[32]
  GI50: 1.17 µM
  TGI: 2.79 µM
[33]
  GI50: 2.26 µM
  TGI: 17.6 µM
[34]
  GI50: 1.7 µM
  TGI: 7.01 µM
[35]
  GI50: 3.33 µM
  TGI: 15.1 µM
[36]
  GI50: 2.62 µM
  TGI: 20.9 µM
[37]
  GI50: 0.536 µM
  TGI: 11.6 µM
[38]
  GI50: 47.4 µM
  TGI: > 100 µM
[39]
  GI50: 2.93 µM
  TGI: > 100 µM
[40]
  GI50: 2.07 µM
  TGI: 10.1 µM
[41]
  GI50: 3.79 µM
  TGI: 22.5 µM
[42]
  GI50: 1.31 µM
  TGI: > 61.4 µM
[43]
  GI50: 2.51 µM
  TGI: 13.5 µM
[44]
  GI50: 1.67 µM
  TGI: 15.8 µM
[45]
  GI50: 1.56 µM
  TGI: 8.2 µM
[46]
  GI50: 0.263 µM
  TGI: 3.67 µM
[47]
  GI50: 5.25 µM
  TGI: 30.7 µM
[48]
  GI50: 2.92 µM
  TGI: 22.6 µM
[49]
  GI50: 3.77 µM
  TGI: 18.3 µM
[50]
  GI50: 1.24 µM
  TGI: 9.58 µM
[51]
  GI50: 2.94 µM
  TGI: 14.2 µM
[52]
  GI50: 1.9 µM
  TGI: 13.5 µM
[53]
  GI50: 3.52 µM
  TGI: 19.2 µM
[54]
  GI50: 1.86 µM
  TGI: 19.1 µM
[55]
  GI50: 1.81 µM
  TGI: 9.92 µM
[56]
  GI50: 1.03 µM
  TGI: 6.73 µM
[57]
  GI50: 1.79 µM
  TGI: 13.2 µM
